Reference: US20100137313A1 (ASTRAZENECA AB, priority 2008, published 2010)

Each compound was assayed against S. pneumoniae Topoisomerase IV ATPase (ParE) (Streptococcus pneumoniae serotype 4, UniProt Q59961) (assay: S. pneumoniae Topoisomerase IV ATPase inhibition). Conditions: values marked * are an average of two or more data points, read-out: % Inh (13 μM) of S. pneumoniae Topoisomerase IV ATPase.
Type: biochemical
Summary of the method: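 Phosphate-release ATPase assay: 1.25 nM ParE, 160 μM ATP, DNA-stimulated. Quench with malachite green/molybdate in 1 M HCl, read 650 nm; IC50 from 10-point dose series.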

Sequence of S. pneumoniae Topoisomerase IV ATPase (ParE) (Q59961 whole entry): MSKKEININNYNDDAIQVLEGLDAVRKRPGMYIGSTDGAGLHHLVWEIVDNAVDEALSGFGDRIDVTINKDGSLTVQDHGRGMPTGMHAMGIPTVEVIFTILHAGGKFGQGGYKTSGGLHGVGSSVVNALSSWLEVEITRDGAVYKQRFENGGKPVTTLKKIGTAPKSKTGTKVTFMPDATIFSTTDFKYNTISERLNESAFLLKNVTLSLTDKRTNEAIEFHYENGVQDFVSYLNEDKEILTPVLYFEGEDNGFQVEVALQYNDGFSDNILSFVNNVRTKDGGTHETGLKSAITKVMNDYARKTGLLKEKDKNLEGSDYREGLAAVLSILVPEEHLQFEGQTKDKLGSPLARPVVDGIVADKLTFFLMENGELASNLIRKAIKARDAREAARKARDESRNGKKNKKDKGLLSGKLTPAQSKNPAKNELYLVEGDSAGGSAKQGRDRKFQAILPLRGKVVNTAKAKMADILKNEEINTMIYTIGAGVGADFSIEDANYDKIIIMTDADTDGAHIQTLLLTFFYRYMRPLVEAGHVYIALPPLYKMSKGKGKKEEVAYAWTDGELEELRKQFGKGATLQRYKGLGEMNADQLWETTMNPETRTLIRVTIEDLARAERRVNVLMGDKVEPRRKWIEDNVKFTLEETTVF

Structure (SMILES) | inhibition at 13 µM [%]
COc1cc(Nc2ncc(-c3cnc(SC)c(C(=O)NS(C)(=O)=O)c3)c(-n3nc(C(F)(F)F)cc3C)n2)cc(OC)c1 [Example 855, 5-{2-[(3,5-dimethoxyphenyl)amino]-4-[5-methyl-3-(trifluoromethyl)-1H-pyrazol-1-yl]pyrimidin-5-yl}-2-(methylsulfanyl)-N-(methylsulfonyl)pyridine-3-carboxamide] | 94
COc1cc(F)cc(Nc2ncc(-c3cnc(OC)c(C(=O)NS(C)(=O)=O)c3)c(-n3nc(C(F)(F)F)cc3C)n2)c1 [Example 900, 5-(2-(3-fluoro-5-methoxyphenylamino)-4-(5-methyl-3-(trifluoromethyl)-1H-pyrazol-1-yl)pyrimidin-5-yl)-2-methoxy-N-(methylsulfonyl)nicotinamide] | 100
Cn1cc(-c2cnc(Nc3ccc(F)c(Cl)c3)nc2-n2ccc(C(F)(F)F)n2)cc(C(=O)O)c1=O [Example 1087, 5-(2-(3-Chloro-4-fluorophenylamino)-4-(3-(trifluoromethyl)-1H-pyrazol-1-yl)pyrimidin-5-yl)-1-methyl-2-oxo-1,2-dihydropyridine-3-carboxylic acid] | 100
COc1cc(Nc2ncc(-c3ccc4c(c3)C(=O)NS4(=O)=O)c(-n3nc(C(F)(F)F)cc3C)n2)cc(OC)c1 [Example 830, 5-{2-[(3,5-dimethoxyphenyl)amino]-4-[5-methyl-3-(trifluoromethyl)-1H-pyrazol-1-yl]pyrimidin-5-yl}-1,2-benzothiazol-3(2H)-one 1,1-dioxide] | 100
COc1cc(Nc2ncc(-c3cncc(C(=O)O)c3)c(-n3nc(C)cc3C(F)F)n2)cc(OC)c1 [Example 1127, 5-(4-(5-(difluoromethyl)-3-methyl-1H-pyrazol-1-yl)-2-(3,5-dimethoxyphenylamino)pyrimidin-5-yl)nicotinic acid] | 100
CNC(=O)/C=C/c1cccc(-c2cnc(Nc3cc(OC)cc(C(F)(F)F)c3)nc2NCCc2ccncc2)c1 [Example 372] | 80.9
Cc1cc(C)cc(Nc2ncc(-c3cccc(/C=C/C(=O)O)c3)c(-n3ccc(C(F)(F)F)n3)n2)c1 [Example 617, (2E)-3-(3-{2-[(3,5-dimethylphenyl)amino]-4-[3-(trifluoromethyl)-1H-pyrazol-1-yl]pyrimidin-5-yl}phenyl)prop-2-enoic acid] | 100
CN(C)C(=O)N1CCN(c2nc(Nc3ccc(F)c(Cl)c3)ncc2-c2cccc(/C=C/C(=O)O)c2)CC1 [Example 291, (E)-3-(3-(2-(3-chloro-4-fluorophenylamino)-4-(4-(dimethylcarbamoyl)-piperazin-1-yl)pyrimidin-5-yl)phenyl)acrylic acid] | 90.1
COc1ncc(C(=O)O)cc1-c1cnc(Nc2cc(C)cc(C)c2)nc1-n1nc(C(F)(F)F)cc1C [Example 1142, 5-(2-(3,5-dimethylphenylamino)-4-(5-methyl-3-(trifluoromethyl)-1H-pyrazol-1-yl)pyrimidin-5-yl)-6-methoxynicotinic acid] | 100
CC1(C)[C@@H](C(=O)O)[C@@H]1c1cccc(-c2cnc(Nc3ccc(F)c(Cl)c3)nc2-n2ccc(C(F)(F)F)n2)c1 [Example 572, (1,3-trans)-3-(3-(2-(3-chloro-4-fluorophenylamino)-4-(3-(trifluoromethyl)-1H-pyrazol-1-yl)pyrimidin-5-yl)phenyl)-2,2-dimethylcyclopropanecarboxylic acid] | 100
COc1cc(Nc2ncc(-c3cnc(-n4cccn4)c(C(=O)O)c3)c(-n3ccc(C(F)(F)F)n3)n2)cc(OC)c1 [Example 589, 5-(2-(3,5-dimethoxyphenylamino)-4-(3-(trifluoromethyl)-1H-pyrazol-1-yl)pyrimidin-5-yl)-2-(1H-pyrazol-1-yl)nicotinic acid] | 100
Fc1ccc(Nc2ncc(-c3cncnc3)c(N3CCC3)n2)cc1Cl [Example 67, 4-(azetidin-1-yl)-N-(3-chloro-4-fluorophenyl)-5-pyrimidin-5-ylpyrimidin-2-amine] | 53.4
COc1nc(OC)c(-c2cnc(Nc3ccc(F)c(Cl)c3)nc2-n2ccc(C(F)(F)F)n2)cc1C(=O)O [Example 1132, 5-(2-(3-chloro-4-fluorophenylamino)-4-(3-(trifluoromethyl)-1H-pyrazol-1-yl)pyrimidin-5-yl)-2,6-dimethoxynicotinic acid] | 100
CN(C)CCCNc1nc(Nc2ccc(F)c(Cl)c2)ncc1-c1cnc(N)nc1 [Example 19, N^2-(3-chloro-4-fluorophenyl)-N^4-[3-(dimethylamino)propyl]-5,5′-bipyrimidin-2,2′,4-triamine] | 95.8
COCCCNc1nc(Nc2ccc(F)c(Cl)c2)ncc1-c1ccc2cc(C(=O)OC)[nH]c2c1 [Example 1051, methyl 6-(2-(3-chloro-4-fluorophenylamino)-4-(3-methoxypropylamino)pyrimidin-5-yl)-1H-indole-2-carboxylate] | 0
COc1ncc(-c2cnc(Nc3cc(C)cc(C#N)c3)nc2-n2ccc(C(F)(F)F)n2)cc1C(=O)O [Example 780, 5-{2-[(3-cyano-5-methylphenyl)amino]-4-[3-(trifluoromethyl)-1H-pyrazol-1-yl]pyrimidin-5-yl}-2-methoxypyridine-3-carboxylic acid] | 100
O=C(O)c1cncc(-c2cnc(Nc3ccc(F)c(S(=O)(=O)N4CCOCC4)c3)nc2N2CCOCC2)c1 [Example 444] | 7
CN1CCN(c2nc(Nc3ccc(F)c(Cl)c3)ncc2-c2cccc(/C=C/C(=O)O)c2)CC1 [Example 301, (E)-3-(3-(2-(3-chloro-4-fluorophenylamino)-4-(4-methylpierazin-1-yl)pyrimidin-5-yl)phenyl)acrylic acid] | 72.2
COc1cc(Nc2ncc(-c3cccc(/C=C/C(=O)O)c3)c(-n3ccc(C(F)(F)F)n3)n2)cc(S(C)(=O)=O)c1 [Example 659, (2E)-3-[3-(2-{[3-methoxy-5-(methylsulfonyl)phenyl]amino}-4-[3-(trifluoromethyl)-1H-pyrazol-1-yl]pyrimidin-5-yl)phenyl]prop-2-enoic acid] | 100
COc1cc(F)cc(Nc2ncc(-c3ccc(C(=O)O)s3)c(-n3ccc(C(F)(F)F)n3)n2)c1 [Example 887, 5-(2-(3-fluoro-5-methoxyphenylamino)-4-(3-(trifluoromethyl)-1H-pyrazol-1-yl)pyrimidin-5-yl)thiophene-2-carboxylic acid] | 100
CCOC(=O)c1cncc(-c2cnc(Nc3ccc(F)c(Cl)c3)nc2N[C@H]2CC[C@H](O)CC2)c1 [Example 128, ethyl 5-[2-[(3-chloro-4-fluorophenyl)amino]-4-[(trans-4-hydroxycyclohexyl)amino]pyrimidin-5-yl]pyridine-3-carboxylate] | -16.2
COc1cc(C)cc(Nc2ncc(-c3cc(C(=O)O)c(=O)n(C)c3)c(-n3nc(C(F)(F)F)cc3C)n2)c1 [Example 861, 5-{2-[(3-methoxy-5-methylphenyl)amino]-4-[5-methyl-3-(trifluoromethyl)-1H-pyrazol-1-yl]pyrimidin-5-yl}-1-methyl-2-oxo-1,2-dihydropyridine-3-carboxylic acid] | 100
